Experimental data reported in patent US9101136B2, “Synergistic herbicide/fungicide composition containing certain pyridine carboxylic acids and certain fungicides” (Dow AgroSciences LLC, priority 2010, dated 2015).
Structures can show the parent of a compound that is named as a salt.

How the values were obtained:
Format in all cases: in vivo
[1] = test system: kochia (Kochia scoparia L; KCHSC); assay: Postemergence herbicidal activity of mixtures on kochia; parameters: pest or weed control: dose or concentration left out as unconfirmed; KCHSC Ob: unit: %; conditions: for KCHSC Ob (observed control): alone
Protocol: (§1) Seeds of the desired test plant species were planted in Sun Gro MetroMix 306 planting mixture, which typically has a pH of 6.0 to 6.8 and an organic matter content of about 30 percent, in plastic pots with a surface area of 103.2 square centimeters (cm^2). When required to ensure good germination and healthy plants, a fungicide treatment and/or other chemical or physical treatment was applied. The plants were grown for 7-36 days (d) in a greenhouse with an approximate 14-hour (h) photoperiod which was maintained at about 18° C. during the day and 17° C. during the night. Nutrients and water were added on a regular basis and supplemental lighting was provided with overhead metal halide 1000-Watt lamps as necessary. The plants were employed for testing when they reached the second or third true leaf stage.
(§2) Treatments consisted of a cereal fungicide compound (as listed in Tables 1 through 34) and the cereal herbicide, 4-amino-3-chloro-6-(4-chloro-2-fluoro-3-methoxyphenyl)pyridine-2-carboxylic acid, alone and in combination. Weighed amounts of acid, esters (methyl) or salts (triethylammonium, TEA) of 4-amino-3-chloro-6-(4-chloro-2-fluoro-3-methoxyphenyl)pyridine-2-carboxylic acid (Compound I) were placed in 25 milliliter (mL) glass vials and dissolved in a volume of 97:3 volume-to-volume (v/v) acetone/dimethyl sulfoxide (DMSO) to obtain 4.5 milligrams active ingredient per milliliter (mg ai/mL) concentrated solutions. […] The concentrated solutions of Compound I were diluted to 1.5 mg ai/mL with the addition of 2 volumes of an aqueous mixture containing acetone, water, isopropyl alcohol, DMSO, Agri-dex crop oil concentrate, and Triton® X-77 surfactant in a 64.7:26.0:6.7:2.0:0.7:0.01 v/v ratio. A dilution solution was prepared by mixing 1 volume of 97:3 v/v acetone/DMSO and 2 volumes of an aqueous mixture containing acetone, water, isopropyl alcohol, DMSO, Agri-dex crop oil concentrate, and Triton® X-77 surfactant in a 64.7:26.0:6.7:2.0:0.7:0.01 v/v ratio. Compound requirements are based upon a 12 mL application volume at a rate of 187 liters per hectare (L/ha). The concentrated solutions of the cereal fungicides were prepared following the same procedure. Weighed amounts of fungicide were placed in 25 mL glass vials and dissolved in a volume of 97:3 v/v acetone/DMSO to obtain concentrated fungicide solutions. The concentrated solutions of the safener were prepared following the same procedure. Weighed amounts of safener were placed in 25 mL glass vials and dissolved in a volume of 97:3 v/v acetone/DMSO to obtain concentrated safener solutions.
(§3) Spray solutions of the cereal herbicide and the fungicidal compound mixtures were prepared by adding the concentrated solutions to the appropriate amount of dilution solution to form 12 mL spray solution with active ingredients in combinations. Spray solutions of the cereal herbicide, herbicide safener and the fungicidal compound mixtures were prepared by adding the concentrated solutions to the appropriate amount of dilution solution to form 12 mL spray solution with active ingredients in combinations.
(§4) Formulated compounds were applied to the plant material with an overhead Mandel track sprayer equipped with 8002E nozzles calibrated to deliver 187 L/ha over an application area of 0.503 square meters (m^2) at a spray height of 18 inches […] above average plant canopy. Control plants were sprayed in the same manner with the solvent blank.
(§5) The treated plants and control plants were placed in a greenhouse as described above and watered by sub-irrigation to prevent wash-off of the test compounds. After 20-22 d, the condition of the test plants as compared with that of the control plants was determined visually and scored on a scale of 0 to 100 percent where 0 corresponds to no injury and 100 corresponds to complete kill. […]

[2] = test system: scented mayweed (Matricaria chamomila L; MATCH); assay: Postemergence herbicidal activity of mixtures on scented mayweed; parameters: pest or weed control: dose or concentration left out as unconfirmed; conditions: for MATCH Ob (observed control): alone
Protocol: as §1, §2, §3, §4, §5

[3] = test system: Russian thistle (Salsola iberica L; SASKR); assay: Postemergence herbicidal activity of mixtures on Russian thistle; conditions: for SASKR Ob (observed control): alone
Protocol: as §1, §2, §3, §4, §5

[4] = test system: bird's-eye speedwell (Veronica persica L; VERPE); assay: Postemergence herbicidal activity of mixtures on bird's-eye speedwell; conditions: for VERPE Ob (observed control): alone
Protocol: as §1, §2, §3, §4, §5

[5] = test system: wild pansy (Viola tricolor L; VIOTR); assay: Postemergence herbicidal activity of mixtures on wild pansy
Protocol: as §1, §2, §3, §4, §5

Fc1ccc([C@]2(Cn3cncn3)O[C@H]2c2ccccc2Cl)cc1 (racemic) [Epoxiconazole, rel-1-[[(2R,3S)-3-(2-chlorophenyl)-2-(4-fluorophenyl)oxiranyl]methyl]-1H-1,2,4-triazole]
pest or weed control at 31.25 g/ha ([1]; Bassia scoparia, post-emergence, fungicide 31.25 g/ha alone, read-out: KCHSC Ob): 0% | pest or weed control at 31.25 g/ha ([2]; Matricaria, post-emergence, fungicide 31.25 g/ha alone, read-out: MATCH Ob): 0% | pest or weed control at 31.25 g/ha ([3]; Salsola tragus, post-emergence, fungicide 31.25 g/ha alone, read-out: SASKR Ob): 0% | pest or weed control at 31.25 g/ha ([4]; Veronica persica, post-emergence, fungicide 31.25 g/ha alone, read-out: VERPE Ob): 0% | pest or weed control at 31.25 g/ha ([5]; Viola tricolor, post-emergence, fungicide 31.25 g/ha alone, read-out: VIOTR Ob): 0%

COC(=O)Nc1nc2ccccc2[nH]1 [Carbendazim, methyl 1H-benzimidazol-2-ylcarbamate]
pest or weed control at 62.5 g/ha ([1]; Bassia scoparia, post-emergence, fungicide 62.5 g/ha alone, read-out: KCHSC Ob): 0% | pest or weed control at 62.5 g/ha ([5]; Viola tricolor, post-emergence, fungicide 62.5 g/ha alone, read-out: VIOTR Ob): 0%

N#Cc1c(Cl)c(Cl)c(Cl)c(C#N)c1Cl [Chlorothalonil, 2,4,5,6-tetrachloro-1,3-benzenedicarbonitrile]
pest or weed control at 250 g/ha ([1]; Bassia scoparia, post-emergence, fungicide 250 g/ha alone, read-out: KCHSC Ob): 0% | pest or weed control at 250 g/ha ([2]; Matricaria, post-emergence, fungicide 250 g/ha alone, read-out: MATCH Ob): 0% | pest or weed control at 250 g/ha ([3]; Salsola tragus, post-emergence, fungicide 250 g/ha alone, read-out: SASKR Ob): 0% | pest or weed control at 250 g/ha ([4]; Veronica persica, post-emergence, fungicide 250 g/ha alone, read-out: VERPE Ob): 0% | pest or weed control at 250 g/ha ([5]; Viola tricolor, post-emergence, fungicide 250 g/ha alone, read-out: VIOTR Ob): 0%

COc1c(Cl)ccc(-c2cc(N)c(Cl)c(C(=O)O)n2)c1F [Compound I TEA Salt, 4-amino-3-chloro-6-(4-chloro-2-fluoro-3-methoxyphenyl)pyridine-2-carboxylic acid]
KCHSC Ob ([1]; Compound I 8.75 g/ha alone): 40% | KCHSC Ob ([1]; Compound I 17.5 g/ha alone): 55% | KCHSC Ob ([1]; Compound I 35 g/ha alone): 65% | KCHSC Ob (observed control) ([1]; 8.75 g/ha): 40% | KCHSC Ob (observed control) ([1]; 17.5 g/ha): 55% | KCHSC Ob (observed control) ([1]; 35 g/ha): 65% | MATCH Ob ([2]; Compound I 8.75 g/ha alone): 40% | pest or weed control at 17.5 g/ha ([2]; Matricaria, post-emergence, Compound I 17.5 g/ha alone, read-out: MATCH Ob): 67% | pest or weed control at 35 g/ha ([2]; Matricaria, post-emergence, Compound I 35 g/ha alone, read-out: MATCH Ob): 73% | MATCH Ob (observed control) ([2]; 8.75 g/ha): 40% | MATCH Ob (observed control) ([2]; 17.5 g/ha): 67% | MATCH Ob (observed control) ([2]; 35 g/ha): 73% | pest or weed control at 8.75 g/ha ([3]; Salsola tragus, post-emergence, Compound I 8.75 g/ha alone, read-out: SASKR Ob): 80% | pest or weed control at 17.5 g/ha ([3]; Salsola tragus, post-emergence, Compound I 17.5 g/ha alone, read-out: SASKR Ob): 84% | pest or weed control at 35 g/ha ([3]; Salsola tragus, post-emergence, Compound I 35 g/ha alone, read-out: SASKR Ob): 86% | SASKR Ob (observed control) ([3]; 8.75 g/ha): 80% | SASKR Ob (observed control) ([3]; 17.5 g/ha): 84% | SASKR Ob (observed control) ([3]; 35 g/ha): 86% | VERPE Ob ([4]; Compound I 8.75 g/ha alone): 10% | VERPE Ob ([4]; Compound I 17.5 g/ha alone): 40% | VERPE Ob ([4]; Compound I 35 g/ha alone): 70% | VERPE Ob (observed control) ([4]; 8.75 g/ha): 10% | VERPE Ob (observed control) ([4]; 17.5 g/ha): 40% | VERPE Ob (observed control) ([4]; 35 g/ha): 70% | VIOTR Ob ([5]; Compound I 8.75 g/ha alone): 23% | VIOTR Ob ([5]; Compound I 17.5 g/ha alone): 40% | VIOTR Ob ([5]; Compound I 35 g/ha alone): 47% | pest or weed control at 17.5 g/ha ([5]; Viola tricolor, post-emergence, alone, 17.5 g/ha, read-out: VIOTR Ob (observed control)): 40% | pest or weed control at 35 g/ha ([5]; Viola tricolor, post-emergence, alone, 35 g/ha, read-out: VIOTR Ob (observed control)): 47% | VIOTR Ob (observed control) ([5]; alone, 8.75 g/ha): 23%

Cc1cc(C2CC2)nc(Nc2ccccc2)n1 [Cyprodinil, 4-cyclopropyl-6-methyl-N-phenyl-2-pyrimidinamine]
pest or weed control at 187.5 g/ha ([3]; Salsola tragus, post-emergence, fungicide 187.5 g/ha alone, read-out: SASKR Ob): 0%

OC(Cn1cncn1)(c1ccc(F)cc1)c1ccccc1F (stereo not drawn) [Flutriafol, α-(2-fluorophenyl)-α-(4-fluorophenyl)-1H-1,2,4-triazole-1-ethanol]
pest or weed control at 21.25 g/ha ([1]; Bassia scoparia, post-emergence, fungicide 21.25 g/ha alone, read-out: KCHSC Ob): 0% | pest or weed control at 21.25 g/ha ([2]; Matricaria, post-emergence, fungicide 21.25 g/ha alone, read-out: MATCH Ob): 0% | pest or weed control at 21.25 g/ha ([3]; Salsola tragus, post-emergence, fungicide 21.25 g/ha alone, read-out: SASKR Ob): 0% | pest or weed control at 21.25 g/ha ([5]; Viola tricolor, post-emergence, fungicide 21.25 g/ha alone, read-out: VIOTR Ob): 0%

CO/N=C(/C(=O)OC)c1ccccc1COc1ccccc1C [Kresoxim-methyl, methyl (αE)-α-(methoxyimino)-2-[(2-methylphenoxy)methyl]benzeneacetate]
pest or weed control at 25 g/ha ([2]; Matricaria, post-emergence, fungicide 25 g/ha alone, read-out: MATCH Ob): 0%

CC1(C)CCC(Cc2ccc(Cl)cc2)C1(O)Cn1cncn1 (stereo not drawn) [Metconazole, 5-[(4-chlorophenyl)methyl]-2,2-dimethyl-1-(1H-1,2,4-triazol-1-ylmethyl)cyclopentanol]
pest or weed control ([1]; Bassia scoparia, post-emergence, read-out: KCHSC Ob): 0% | pest or weed control ([2]; Matricaria, post-emergence, read-out: MATCH Ob): 0%

COc1cc(C)c(C(=O)c2c(OC)ccc(Br)c2C)c(OC)c1OC [Metrafenone, (3-bromo-6-methoxy-2-methylphenyl)(2,3,4-trimethoxy-6-methylphenyl)methanone]
pest or weed control at 37.5 g/ha ([2]; Matricaria, post-emergence, fungicide 37.5 g/ha alone, read-out: MATCH Ob): 0% | pest or weed control at 37.5 g/ha ([3]; Salsola tragus, post-emergence, fungicide 37.5 g/ha alone, read-out: SASKR Ob): 0% | pest or weed control at 37.5 g/ha ([5]; Viola tricolor, post-emergence, fungicide 37.5 g/ha alone, read-out: VIOTR Ob): 0%

CCCOc1nc2ccc(I)cc2c(=O)n1CCC [Proquinazid, 6-iodo-2-propoxy-3-propyl-4(3H)-quinazolinone]
pest or weed control at 12.5 g/ha ([2]; Matricaria, post-emergence, fungicide 12.5 g/ha alone, read-out: MATCH Ob): 0% | pest or weed control at 12.5 g/ha ([5]; Viola tricolor, post-emergence, fungicide 12.5 g/ha alone, read-out: VIOTR Ob): 0%

OC(Cc1ccccc1Cl)(Cn1[nH]cnc1=S)C1(Cl)CC1 (stereo not drawn) [Prothioconazole, 2-[2-(1-chlorocyclopropyl)-3-(2-chlorophenyl)-2-hydroxypropyl]-1,2-dihydro-3H-1,2,4-triazole-3-thione]
pest or weed control at 50 g/ha ([1]; Bassia scoparia, post-emergence, fungicide 50 g/ha alone, read-out: KCHSC Ob): 0% | pest or weed control at 50 g/ha ([2]; Matricaria, post-emergence, fungicide 50 g/ha alone, read-out: MATCH Ob): 0% | pest or weed control at 50 g/ha ([3]; Salsola tragus, post-emergence, fungicide 50 g/ha alone, read-out: SASKR Ob): 0% | pest or weed control at 50 g/ha ([4]; Veronica persica, post-emergence, fungicide 50 g/ha alone, read-out: VERPE Ob): 0%

CCCN(CC)CC1COC2(CCC(C(C)(C)C)CC2)O1 (stereo not drawn) [Spiroxamine, 8-(1,1-dimethylethyl)-N-ethyl-N-propyl-1,4-dioxaspiro[4.5]decane-2-methanamine]
KCHSC Ob (observed control) ([1]; 180 g/ha): 0% | MATCH Ob (observed control) ([2]; 180 g/ha): 0% | pest or weed control at 180 g/ha ([5]; Viola tricolor, post-emergence, alone, 180 g/ha, read-out: VIOTR Ob (observed control)): 0%

COc1ccnc(C(=O)N[C@H]2COC(=O)[C@H](Cc3ccccc3)[C@@H](OC(=O)C(C)C)[C@H](C)OC2=O)c1OCOC(=O)C(C)C [compound II, isobutyric acid (3S,6S,7R,8R)-8-benzyl-3-[(3-isobutyryloxymethoxy-4-methoxypyridine-2-carbonyl)-amino]-6-methyl-4,9-dioxo-[1,5]dioxonan-7-yl ester]
KCHSC Ob (observed control) ([1]; 40.5 g/ha): 0% | MATCH Ob (observed control) ([2]; 40.5 g/ha): 0% | SASKR Ob (observed control) ([3]; 40.5 g/ha): 0% | pest or weed control at 40.5 g/ha ([5]; Viola tricolor, post-emergence, read-out: VIOTR Ob (observed control)): 0%
